Consider seven molecules from patent US20050282755A1, “Compositions having antimicrobial activity and uses thereof” (priority 2004, published 2005).

Each structure is given as a SMILES string. Converted amounts (≈) assume the structure as drawn. Where two headings read alike, the source gives them in different places. Non-standard residues stand in square brackets, D forms with d. Residues, ends and D or L forms follow the SMILES beside them. *: point of attachment. Lauroyl = CCCCCCCCCCCC(=O)*

One series concerns human red blood cells. Type of series: cell-based. The conditions noted are these: red cells of human. Here is the method: Hemoglobin-release assays with human red blood cells (RBC) were performed to determine the hemolytic activity of granulysin peptides. Human RBCs (San Diego Blood Bank, San Diego, Calif.) were washed three times in PBS buffer (8 mM Na2HPO4, 1.5 mM KH2PO4, 140 mM NaCl and 2.7 mM KCl, pH 7.4), resuspended in PBS to the concentration of 5% (v/v). The RBC were then exposed to different peptide compositions at various concentrations (100-6.25 micromolar) and incubated at 37° C. for 60 minutes in a total volume of 120 microliters. Every experiment included a negative control without peptide and maximum control treated with 5% TX-100 for complete hemoglobin release. Samples were centrifuged for 1 minute at 13,000 g to remove debris and intact cells. The hemoglobin-containing supernatant was removed and transferred to a microwell plate. Hemoglobin release was quantified at A540 using a Versamax plate reader (Molecular Devices). The degree of hemolysis is expressed as percentage of hemolysis compared to the […], using the following formula: % hemolysis=(sample−neg. control)/(max. control−neg. control)×100.

The subject of series [1] is Escherichia coli ATCC 25922. Description: MIC, NCCLS M7-A6 broth microdilution (Table 9, no superscript). The conditions noted are these: ATCC 25922. Type of series: cell-based. A digest of the protocol:
(§1)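 MIC determined by microdilution in cation-adjusted Mueller Hinton broth after overnight growth at 37° C, defined as the lowest peptide level lacking turbidity.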
A general note: In broth dilution the organism is exposed to a series of concentrations in liquid medium.

The test system of series [2] is Pseudomonas aeruginosa ATCC 27853. Described as above. The following applies: ATCC 27853. Type of series: cell-based. In short, it runs like this:
as §1

Series [3] has as its system Staphylococcus epidermidis ATCC 12228. Described as above. Type of series: cell-based. The conditions noted are these: ATCC 12228. In short, it runs like this: as §1
The subject of series [4] is Propionibacterium acnes ATCC 6919. Type of series: cell-based. Here is the method:
A second method that was used to determine the MIC in P. acnes for selected antimicrobial agents was a non-standard broth microdilution method that used an assay buffer composed of reinforced Clostridial broth. Briefly, a log-phase bacterial culture of P. acnes was used to inoculate wells of a 96-well plate so that the final inoculum for each well contained 5×10^5 to 1×10^6 CFU/milliliter. […] Plates were incubated for 48-72 hours at 37° C. in a GasPak anaerobic chamber. The lowest concentration of peptide that contained no visible growth as evidenced by a lack of turbidity when compared to the control (no peptide) was determined as the MIC. MIC values that utilized this method of MIC determination are indicated in Table 9 with a subscript letter “d.”

The test system of series [5] is Staphylococcus aureus ATCC 29213. The following applies: ATCC 29213, pH 7.4.
In another series the test system is Salmonella dublin (Lane). The following applies: pH 7.4.

As for `CCCCCCCCCCCC(=O)N[C@@H](C(=O)N[C@H](CCCNC(=N)N)C(=O)N[C@@H](C(=O)N[C@H](CO)C(=O)N[C@H](CCCNC(=N)N)C(=O)N[C@@H](C(=O)NCC(=O)N[C@H](CCCNC(=N)N)C(=O)N[C@H](CO)C(=O)N[C@H](CCCNC(=N)N)C(=O)N[C@H](Cc1c[nH]c2ccccc12)C(=O)N[C@H](CCCNC(=N)N)C(=O)N[C@H](CC(=O)O)C(=O)N[C@H](Cc1c[nH]c2ccccc12)C(=O)N[C@H](CO)C(=O)N[C@H](CCCNC(=N)N)C(=O)N[C@H](CC(N)=O)C(=O)N[C@H](Cc1ccccc1)C(=O)N[C@H](CCSC)C(=O)N[C@H](CCCNC(=N)N)C(=O)N[C@H](C)C(=O)N[C@H](C)C(=O)N[C@@H](CCCCNC(C)=O)C(N)=O)[C@H](C)O)C(C)C)[C@H](C)O` [Peptide 85, Lauryl-trvsrtgrsrwrdwsrnfmraaK(Ac)-NH2], the “Hemolytic effect on human red blood cells” value with human red blood cells (6.25 Micromolar) turned out to be 16%; in the series on human red blood cells (12.5 Micromolar), 26%; with human red blood cells (25 Micromolar) it was 36%; in the series with human red blood cells (50 Micromolar) it was 53%; in the series with human red blood cells (100 Micromolar) it was 83%. Also, the “MIC E. coli” value in series [1] came to 8 µg/mL (≈ 2.58 µM). Further, in series [2], the “MIC P. aeruginosa” value was >64 µg/mL. In addition, the “MIC S. epidermidis” value in series [3] was determined as 2 µg/mL (≈ 0.644 µM).
With `CCCCCCCCCCCC(=O)NCCCC[C@@H](NC(=O)[C@@H](CCCNC(=N)N)NC(=O)[C@@H](CCSC)NC(=O)[C@@H](Cc1ccccc1)NC(=O)[C@@H](CC(N)=O)NC(=O)[C@@H](CCCNC(=N)N)NC(=O)[C@@H](CO)NC(=O)[C@@H](Cc1c[nH]c2ccccc12)NC(=O)[C@@H](CC(=O)O)NC(=O)[C@@H](CCCNC(=N)N)NC(=O)[C@@H](Cc1c[nH]c2ccccc12)NC(=O)[C@@H](CCCNC(=N)N)NC(=O)[C@@H](CO)NC(=O)[C@@H](CCCNC(=N)N)NC(=O)CNC(=O)[C@H](NC(=O)[C@@H](CCCNC(=N)N)NC(=O)[C@@H](CO)NC(=O)[C@H](NC(=O)[C@@H](CCCNC(=N)N)NC(=O)[C@H](NC(C)=O)[C@H](C)O)C(C)C)[C@H](C)O)C(N)=O` [Peptide 65] (Ac-[dT][dR][dV][dS][dR][dT]G[dR][dS][dR][dW][dR][dD][dW][dS][dR][dN][dF][dM][dR][dK](Lauroyl)-NH2), the “MIC P. acnes” value in series [4] was 25 µg·days/mL. Also, in series [5], the “MIC S. aureus” value turned out to be 3b ug/mL. Moreover, the “MIC S. dublin” value in the series with Salmonella dublin (Lane) is on record as 6b ug/mL.
`CSCC[C@@H](NC(=O)[C@@H](Cc1ccccc1)NC(=O)[C@@H](CC(N)=O)NC(=O)[C@@H](CCCNC(=N)N)NC(=O)[C@@H](CO)NC(=O)[C@@H](Cc1c[nH]c2ccccc12)NC(=O)[C@@H](CC(=O)O)NC(=O)[C@@H](CCCNC(=N)N)NC(=O)[C@@H](Cc1c[nH]c2ccccc12)NC(=O)[C@@H](CCCNC(=N)N)NC(=O)[C@@H](CO)NC(=O)[C@@H](CCCNC(=N)N)NC(=O)CNC(=O)[C@H](NC(=O)[C@@H](CCCNC(=N)N)NC(=O)[C@@H](CO)NC(=O)[C@H](NC(=O)[C@@H](CCCNC(=N)N)NC(=O)[C@H](NC(C)=O)[C@H](C)O)C(C)C)[C@H](C)O)C(=O)N[C@H](CCCNC(=N)N)C(=O)N[C@H](C)C(=O)N[C@H](C)C(=O)N[C@H](CCCCN)C(=O)N[C@H](CCCCN)C(=O)N[C@H](CCCCN)C(=O)N[C@H](CCCCN)C(=O)N[C@H](CCCCN)C(=O)N[C@H](CCCCN)C(=O)N[C@H](CCCCN)C(=O)N[C@H](CCCCN)C(N)=O` [Peptide 31, Ac-trvsrtgrsrwrdwsrnfmraakkkkkkkk-NH2]: the “MIC E. coli” value in series [1] is >64 µg/mL. Moreover, the “MIC P. aeruginosa” value in series [2] is >64 µg/mL. The “MIC S. epidermidis” value in series [3] was 8 µg/mL (≈ 2.09 µM). Moreover, the “MIC P. acnes” value in series [4] stood at 12.5 µg·days/mL. In addition, in series [5], the “MIC S. aureus” value was 3b ug/mL. In the series with Salmonella dublin (Lane), the “MIC S. dublin” value worked out at 6b ug/mL.
On to `CSCC[C@H](NC(=O)[C@H](Cc1ccccc1)NC(=O)[C@H](CC(N)=O)NC(=O)[C@H](CCCNC(=N)N)NC(=O)[C@H](CO)NC(=O)[C@H](Cc1c[nH]c2ccccc12)NC(=O)[C@H](CC(=O)O)NC(=O)[C@H](CCCNC(=N)N)NC(=O)[C@H](Cc1c[nH]c2ccccc12)NC(=O)[C@H](CCCNC(=N)N)NC(=O)[C@H](CO)NC(=O)[C@H](CCCNC(=N)N)NC(=O)CNC(=O)[C@@H](NC(=O)[C@H](CCCNC(=N)N)NC(=O)[C@H](CO)NC(=O)[C@@H](NC(=O)[C@H](CCCNC(=N)N)NC(=O)[C@@H](NC(C)=O)[C@@H](C)O)C(C)C)[C@@H](C)O)C(=O)N[C@@H](CCCNC(=N)N)C(=O)N[C@@H](C)C(=O)N[C@@H](C)C(=O)N[C@@H](CCCN)C(=O)N[C@@H](CCCN)C(=O)N[C@@H](CCCN)C(=O)N[C@@H](CCCN)C(=O)N[C@@H](CCCN)C(=O)N[C@@H](CCCN)C(=O)N[C@@H](CCCN)C(=O)N[C@@H](CCCN)C(N)=O` [Peptide 3, Ac-TRVSRTGRSRWRDWSRNFMRAAOOOOOOOO-NH2], for which the “MIC E. coli” value in series [1] was >64 µg/mL. Further, the “MIC P. aeruginosa” value in series [2] is >64 µg/mL. Further, the “MIC S. epidermidis” value in series [3] is >64 µg/mL. Moreover, in series [4], the “MIC P. acnes” value was 6 µg·days/mL. Also, in series [5], the “MIC S. aureus” value was determined as 6b ug/mL. In addition, in the series on Salmonella dublin (Lane), the “MIC S. dublin” value came to 6b ug/mL.
`CSCC[C@@H](NC(=O)[C@@H](Cc1ccccc1)NC(=O)[C@@H](CC(N)=O)NC(=O)[C@@H](CCCNC(=N)N)NC(=O)[C@@H](CO)NC(=O)[C@@H](Cc1c[nH]c2ccccc12)NC(=O)[C@@H](CC(=O)O)NC(=O)[C@@H](CCCNC(=N)N)NC(=O)[C@@H](Cc1c[nH]c2ccccc12)NC(=O)[C@@H](CCCNC(=N)N)NC(=O)[C@@H](CO)NC(=O)[C@@H](CCCNC(=N)N)NC(=O)CNC(=O)[C@H](NC(=O)[C@@H](CCCNC(=N)N)NC(=O)[C@@H](CO)NC(=O)[C@H](NC(=O)[C@@H](CCCNC(=N)N)NC(=O)[C@H](NC(=O)[C@@H](C)NC(=O)[C@@H](C)NC(=O)[C@@H](CCCCN)NC(=O)[C@@H](CCCCN)NC(=O)[C@@H](CCCCN)NC(=O)[C@@H](CCCCN)NC(=O)[C@@H](CCCCN)NC(=O)[C@@H](CCCCN)NC(=O)[C@@H](CCCCN)NC(=O)[C@H](N)CCCCN)[C@H](C)O)C(C)C)[C@H](C)O)C(=O)N[C@H](CCCNC(=N)N)C(N)=O` [Peptide 36, H2N-kkkkkkkkaatrvsrtgrsrwrdwsrnfmr-NH2] (H-[dK][dK][dK][dK][dK][dK][dK][dK][dA][dA][dT][dR][dV][dS][dR][dT]G[dR][dS][dR][dW][dR][dD][dW][dS][dR][dN][dF][dM][dR]-NH2): in series [4], the “MIC P. acnes” value came to 25 µg·days/mL. Also, in series [5], the “MIC S. aureus” value was determined as 6b ug/mL. The “MIC S. dublin” value against Salmonella dublin (Lane) came out at 6b ug/mL.
With `CSCC[C@H](NC(=O)[C@H](Cc1ccccc1)NC(=O)[C@H](CC(N)=O)NC(=O)[C@H](CCCNC(=N)N)NC(=O)[C@H](CO)NC(=O)[C@H](Cc1c[nH]c2ccccc12)NC(=O)[C@H](CC(=O)O)NC(=O)[C@H](CCCNC(=N)N)NC(=O)[C@H](Cc1c[nH]c2ccccc12)NC(=O)[C@H](CCCNC(=N)N)NC(=O)[C@H](CO)NC(=O)[C@H](CCCNC(=N)N)NC(=O)CNC(=O)[C@@H](NC(=O)[C@H](CCCNC(=N)N)NC(=O)[C@H](CO)NC(=O)[C@@H](NC(=O)[C@H](CCCNC(=N)N)NC(=O)[C@@H](NC(C)=O)[C@@H](C)O)C(C)C)[C@@H](C)O)C(=O)N[C@@H](CCCNC(=N)N)C(=O)N[C@@H](CCCNC(=N)N)C(=O)N[C@@H](CCCNC(=N)N)C(N)=O` [Peptide 13] (Ac-TRVSRTGRSRWRDWSRNFMRRR-NH2), the “MIC P. acnes” value in series [4] is 25 µg·days/mL. Besides, the “MIC S. aureus” value in series [5] stood at 25b ug/mL. The “MIC S. dublin” value in the series with Salmonella dublin (Lane) was 25b ug/mL.
With `CCCCCCCCCCCC(=O)NCCCC[C@H](NC(=O)[C@H](CCCNC(=N)N)NC(=O)[C@H](CCSC)NC(=O)[C@H](Cc1ccccc1)NC(=O)[C@H](CC(N)=O)NC(=O)[C@H](CCCNC(=N)N)NC(=O)[C@H](CO)NC(=O)[C@H](Cc1c[nH]c2ccccc12)NC(=O)[C@H](CC(=O)O)NC(=O)[C@H](CCCNC(=N)N)NC(=O)[C@H](Cc1c[nH]c2ccccc12)NC(=O)[C@H](CCCNC(=N)N)NC(=O)[C@H](CO)NC(=O)[C@H](CCCNC(=N)N)NC(=O)CNC(=O)[C@@H](NC(=O)[C@H](CCCNC(=N)N)NC(=O)[C@H](CO)NC(=O)[C@@H](NC(=O)[C@H](CCCNC(=N)N)NC(=O)[C@@H](NC(=O)CCCCCCCCCCC)[C@@H](C)O)C(C)C)[C@@H](C)O)C(N)=O` [Peptide 66] (Lauroyl-TRVSRTGRSRWRDWSRNFMRK(Lauroyl)-NH2), the “MIC P. acnes” value in series [4] came to 100 µg·days/mL. The “MIC S. aureus” value in series [5] worked out at 25b ug/mL. The “MIC S. dublin” value in the series on Salmonella dublin (Lane) stood at 25b ug/mL.
